Laboratory results from PubChem BioAssay (NCI).
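96-well plates; 48 h exposure; 5 concentrations. Endpoints by linear interpolation between flanking doses. Not reached: highest tested concentration assigned. At the TGI there is no net growth.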

Assays:
Assay in all cases: NCI anticancer screen, dose series, 48 h
HL-60(TB) leukemia = system: HL-60(TB) leukemia
HOP-92 NSCLC = system: HOP-92 NSCLC
SNB-19 CNS = system: SNB-19 CNS
HOP-62 NSCLC = system: HOP-62 NSCLC
OVCAR-8 ovarian = system: OVCAR-8 ovarian
SK-OV-3 ovarian = system: SK-OV-3 ovarian
DU-145 prostate = system: DU-145 prostate
CCRF-CEM leukemia = system: CCRF-CEM leukemia
MDA-N = system: MDA-N
K-562 leukemia = system: K-562 leukemia

| Compound | TGI (HL-60(TB) leukemia) | TGI (HOP-92 NSCLC) | TGI (SNB-19 CNS) | TGI (HOP-62 NSCLC) | TGI (OVCAR-8 ovarian) | TGI (SK-OV-3 ovarian) | TGI (DU-145 prostate) | TGI (CCRF-CEM leukemia) | TGI (MDA-N) | TGI (K-562 leukemia) |
| --- | --- | --- | --- | --- | --- | --- | --- | --- | --- | --- |
| COC(=O)c1ccc(/C=C2\CCc3ccccc3C2=O)cc1 | > 100 µM | > 100 µM | > 100 µM | > 100 µM | > 100 µM | > 100 µM | > 100 µM | > 100 µM | > 100 µM | > 100 µM |
| C=C[C@@](C)(/C=C/c1ccc(O)cc1)CCC=C(C)C | 29.7 µM | 32 µM | 34.7 µM | 33.8 µM | 35.2 µM | 30 µM | 26.1 µM | 31 µM | 31 µM | 29.9 µM |
| C/C(=N\Nc1ccccc1)C(CN(C)C)C(c1ccccc1)c1c(O)c2ccccc2oc1=O (stereo not given) | > 100 µM | 97 µM | > 100 µM | > 100 µM | > 100 µM | > 100 µM | > 100 µM | > 100 µM | > 100 µM | > 100 µM |
| O=c1oc2ccc(Cl)cc2cc1-c1cn2ccsc2n1 | 85.1 µM | 64.3 µM | > 100 µM | > 100 µM | 96.8 µM | > 100 µM | > 100 µM | 78.3 µM | > 100 µM | > 100 µM |
| CC1=C2C(=O)c3ccccc3C(=O)[C@H]2C[C@@H](N2CCCCCC2=O)O1 | 46.3 µM | 36 µM | 39.2 µM | 33 µM | 40.3 µM | > 100 µM | 32.3 µM | 20.3 µM | 29.4 µM | 53.4 µM |
| CC1=C2NCN(C)N=C2C(C#N)(C#N)C1(C#N)C#N | 4.84 µM | 32 µM | > 95.2 µM | > 100 µM | > 58.2 µM | > 100 µM | > 75 µM | 7.86 µM | 30 µM | > 100 µM |
| COC1=CC(=O)C2=C(C1=O)[C@H]1CC[C@]3(C)[C@@H](OC(C)=O)CC[C@H]3[C@@H]1CC2 | 40.4 µM | 24 µM | > 100 µM | > 100 µM | 53.9 µM | > 100 µM | > 100 µM | > 100 µM | > 100 µM | > 100 µM |
| COc1ccc(C2=C(OC(=O)N(C)C)c3cccn3-c3cc(Cl)ccc3S2)cc1 | > 10 µM | > 10 µM |  | > 10 µM | > 10 µM | > 10 µM | > 10 µM | > 10 µM | > 10 µM | > 10 µM |
| CC12CC(C/C1=N/O)C(C)(C)C2 (stereo not given) | > 100 µM | > 100 µM | > 100 µM | > 100 µM | > 100 µM | > 100 µM | > 100 µM | > 100 µM | > 100 µM | > 100 µM |
| Cn1c(=O)sc2cc(C(=S)N3CCOCC3)ccc21 | > 100 µM | > 100 µM | > 100 µM | > 100 µM | > 100 µM | > 100 µM | > 100 µM | > 100 µM | > 100 µM | > 100 µM |
| CO[P@]1(=O)O[C@@H](c2ccccc2)[C@H](O)[C@@]1(O)c1ccccc1 | > 100 µM | > 100 µM | > 100 µM |  | > 100 µM | > 100 µM | > 100 µM | > 100 µM | > 100 µM | > 100 µM |
| NC(=S)N/N=C\CC(O)(C(F)(F)F)C(F)(F)F | > 10 µM | > 10 µM | > 10 µM | > 10 µM | > 10 µM | > 10 µM | > 10 µM | > 10 µM | > 10 µM | > 10 µM |
| CCOC(=O)/C(C#N)=C/N(CC)/N=C/c1ccccc1 | > 100 µM | > 100 µM | > 100 µM |  | > 100 µM | > 100 µM | > 100 µM | > 100 µM | > 100 µM | > 100 µM |
| CC(C)CCCC(C)[C@H]1CC[C@H]2N=C(Nc3ccccc3)CCC[C@]12C (stereo not given in full) | 4.7 µM | 9.42 µM | 17.1 µM | 6.12 µM | 3.66 µM | 4.11 µM | > 100 µM | 25.3 µM | 10.9 µM | 3.55 µM |
| CC/C(Cl)=N\OC(=O)Nc1ccc(F)cc1F | 4.31 µM | 4.34 µM | > 56.6 µM | 46.1 µM | 37.3 µM | 37.4 µM | 32.2 µM | 5.11 µM | 12.6 µM | 2.34 µM |
| O=S1(=O)OCCOS(=O)(=O)C1Cc1nc2ccccc2[nH]1 | 88.4 µM | > 100 µM | > 100 µM | > 100 µM | > 100 µM |  | > 100 µM | > 100 µM | > 100 µM | > 100 µM |
| O=C1OI(C#Cc2ccccc2)c2ccccc21 | 7.82 µM | 5.66 µM | 21.8 µM | 22.6 µM | 36.4 µM | 26.1 µM | 23.4 µM | 4.01 µM | 30.6 µM | 6.7 µM |

| Compound | TGI (HL-60(TB) leukemia) | TGI (HOP-92 NSCLC) | TGI (SNB-19 CNS) | TGI (HOP-62 NSCLC) | TGI (OVCAR-8 ovarian) | TGI (SK-OV-3 ovarian) | TGI (DU-145 prostate) | TGI (CCRF-CEM leukemia) | TGI (MDA-N) | TGI (K-562 leukemia) |
| --- | --- | --- | --- | --- | --- | --- | --- | --- | --- | --- |
| O=S1(=O)CCN(c2ccccc2CC(c2c[nH]c3ccccc23)c2c[nH]c3ccccc23)CC1 | 12.7 µM | 25.3 µM | > 100 µM | 35.7 µM | 39.7 µM | > 79 µM | 35.4 µM | 11.1 µM | 18.2 µM | 45.1 µM |
| CC(C)C1CC(CO)(CNc2cc(Cl)nc(N)n2)C1 (stereo not given) | > 100 µM | > 100 µM | > 100 µM | > 100 µM | > 100 µM | > 100 µM | > 100 µM | > 100 µM | > 100 µM | > 100 µM |
| CC(C)(C)c1c(C(C)(C)C)c(=O)c1=O | > 100 µM | > 100 µM | > 100 µM | > 100 µM | > 100 µM | > 100 µM | > 100 µM | > 100 µM | > 100 µM | > 100 µM |
| CC1(C)[C@@H]2CC[C@@]1(C)[C@H](O)[C@@H]2SCc1ccccc1 | 54.3 µM | 28.7 µM | 31.7 µM | 33 µM | 37.2 µM | 44.9 µM | 40.6 µM | 96.6 µM | 43.4 µM | > 100 µM |
| COc1cc2cc(C(=O)N3CC(CCl)c4c3cc([N+](C)(C)Cc3ccc([N+](=O)[O-])n3C)c3ccccc43)[nH]c2c(OC)c1OC (stereo not given) | 8.16 µM | 6.26 µM | > 100 µM | > 100 µM | 8.78 µM | > 100 µM | 23.8 µM | 18.6 µM | 6.64 µM | > 100 µM |
| CC(=O)c1ccc(NC(=O)CSc2nc(C)nc3c2sc(=S)n3-c2ccccc2)cc1 | > 3.16 µM | > 3.16 µM | > 3.16 µM | > 3.16 µM | > 10 µM | > 3.16 µM | > 3.16 µM | > 3.16 µM | > 3.16 µM | > 10 µM |
| NC(=O)C1=CC2C3C=CC2(O)C(=O)OC3O1 (stereo not given) | 10.5 µM | 6.73 µM | 60.9 µM | 29.9 µM | 6.66 µM | 57.4 µM | 14.2 µM | 9.8 µM | 6.97 µM | > 100 µM |
| O=C1C=C(N2CCN(c3ccccn3)CC2)C(=O)c2c(O)ccc(O)c21 | 20.3 µM | > 54.1 µM | 78.6 µM | 47.7 µM | > 90.8 µM | 51.3 µM | > 55.5 µM | > 36.8 µM | 5.76 µM | 36.2 µM |
| COC(=O)C(NC(=O)CSc1nnc(COc2ccc(Cl)cc2)n1-c1ccccc1)C(C)C (stereo not given) | > 100 µM | 77.2 µM | 73 µM | 35.2 µM | 64.7 µM | > 100 µM | > 100 µM | > 100 µM | 32.1 µM | > 100 µM |
| O=P(O)(O)CN1CCNCCN(CP(=O)(O)O)CCNCC1 | 15.2 µM | 9.76 µM | > 100 µM | > 100 µM | > 83.6 µM | > 100 µM | > 100 µM | > 100 µM | > 100 µM | > 100 µM |
| COc1ccc(C(=O)c2ccc(-n3cc(/C=C/[N+](=O)[O-])c4ccccc43)cc2)cc1 | 44.6 µM | 34.9 µM | > 72.4 µM | 35.4 µM | 45.2 µM | > 71.3 µM | > 51.2 µM | > 20.2 µM | > 58.9 µM | > 100 µM |
| COc1cccc(CN(C(=O)/C=C\Sc2ccccc2)C(C)(C)C)c1 | > 100 µM | 70.8 µM | > 100 µM | > 100 µM | > 100 µM | > 100 µM | > 100 µM | > 100 µM | > 100 µM |  |
| O=C1CC2(CCNCC2)C(=O)N1N1CCOCC1 | > 100 µM | > 100 µM | > 100 µM | > 100 µM | > 100 µM | > 100 µM | > 100 µM | > 100 µM | > 100 µM | > 100 µM |
| Cc1c2cccc-2ccc2c1[nH]c1ccccc12 | 9.38 µM | 7.75 µM | 10.3 µM | 12.9 µM | 7.07 µM | 11 µM | 15.7 µM | > 26.1 µM | 4.15 µM | 11 µM |
| Cc1ccc2c(c1)CC1(C2=O)[C@H](c2ccccc2)C2C(=O)c3ccc(C)cc3C2[C@H]1c1ccccc1 (stereo not given in full) | > 100 µM | > 100 µM | > 100 µM | > 100 µM | > 100 µM | > 100 µM | > 100 µM | > 100 µM | > 100 µM | > 100 µM |
| O=C(CSc1nc2ccc(I)cc2c(=O)n1Cc1ccccc1)NN1C(=O)CCC1=O | 87.6 µM | 64.7 µM | > 100 µM | > 100 µM | > 100 µM | > 100 µM | > 100 µM | > 100 µM | > 100 µM | > 100 µM |
| O=C1CSc2nnc(CCCCCCCCc3nnc4n3NC(=O)CS4)n2N1 | > 100 µM | > 100 µM | > 100 µM | > 100 µM | > 100 µM | > 100 µM | > 100 µM | 51.1 µM | > 100 µM | > 100 µM |
